Data: patent US20230091336A1, “CANNABINOID COMPOSITIONS” (priority 2020, published 2023)
pIC50: −log10 of the molar value. Like-named read-outs stand apart in the source and are kept apart here.

Experiments:
[1] = tested on: SOCE in HEK-293 human embryonic kidney cells; test: SOCE Fura-2 bioassay in HEK293 cells; type: cell-based; settings: for inhibitory effect in immune cells compared with non-immune HEK293 cells: 10 μM, HEK293 (FIG. 8) vs immune cells; for pIC50: Table 5
SOCE in Jurkat T cells = test: SOCE Fura-2 bioassay in Jurkat cells; type: cell-based, human; settings: for combinatory effect on SOCE inhibition when paired with CBGA (isobolographic analysis): pairs expected to inhibit 50%, FIGS. 10A-10T; for effect on SOCE Ca^2+ signals, pure compounds: 10 μM, 1 μM thapsigargin, FIG. 7A, 7C
[2] = tested on: SOCE in THP-1 human monocytes; test: SOCE Fura-2 bioassay in THP-1 cells; settings: for combinatory effect when paired with 2.2 μM CBGA: 10 μM cannabinoid + 2.2 μM CBGA, FIG. 10Z; for combinatory effect on SOCE inhibition when paired with CBGA (isobolographic analysis): pairs expected to inhibit 50%, FIGS. 10U-10Y
[3] = tested on: SOCE in RBL-2H3 rat mast cells; test: SOCE Fura-2 bioassay in RBL-2H3 cells; settings: Table 5
Protocol: (§1) Briefly, SOCE inhibition experiments were performed as described in Example 8, using each of the hemp extracts listed below and in Tables 6A and 6B at six concentrations each in each of the five cell types listed above to obtain dose response curves, as shown in FIGS. 11A-11SS. […] All data are averages of three independent runs±SEM. […] Hemp extracts used in FIGS. 11A-11SS are: Sour Space Candy (SSC), Hawaiian Haze (HH), Special Sauce (SS), Suver Haze (SH), White CBG (WCBG), Elektra (ELEK), Cherry Wine (CW), Lifter (LIF), Grape Soda (GS).

[4] = tested on: SOCE in U937 human monocytes; test: SOCE Fura-2 bioassay in U937 cells; settings: Table 5
Protocol: as §1

[5] = tested on: SOCE in Luva human mast cells; test: SOCE Fura-2 bioassay in Luva cells; settings: Table 5
Protocol: as §1

[6] = Homo sapiens, read-out: IC50 SOCE, purified cannabinoids, Jurkat, Table 5
[7] = Homo sapiens, THP-1, read-out: IC50 SOCE, purified cannabinoids
[8] = Rattus norvegicus, RBL-2H3, read-out: IC50 SOCE, purified cannabinoids, RBL-2H3
[9] = Homo sapiens, U-937, read-out: IC50 SOCE, purified cannabinoids, U937
[10] = Homo sapiens, Mast cell, read-out: IC50 SOCE, purified cannabinoids, Luva
[11] = Homo sapiens, HEK293, read-out: IC50 SOCE, purified cannabinoids, HEK-293

## CCCCCc1cc(O)c2c(c1)OC(C)(C)[C@@H]1CCC(C(=O)O)=C[C@@H]21 [11-COOH-Δ9-THC, (6aR,10aR)-1-hydroxy-6,6-dimethyl-3-pentyl-6a,7,8,10a-tetrahydro-6H-benzo[c]chromene-9-carboxylic acid]
[1]
  inhibitory effect in immune cells compared with non-immune HEK293 cells: selective

## CCCCCc1cc(O)c2c(c1)OC(C)(C)[C@@H]1CC=C(C)C[C@@H]21 [Δ8-THC, (6aR,10aR)-6,6,9-trimethyl-3-pentyl-6a,7,10,10a-tetrahydro-6H-benzo[c]chromen-1-ol]
SOCE in Jurkat T cells; [6]
  pIC50: 4.85
SOCE in Jurkat T cells
  combinatory effect on SOCE inhibition when paired with CBGA (isobolographic analysis): sub-additive
[2]; [7]
  pIC50: < 4.30
[2]; THP-1
  combinatory effect when paired with 2.2 μM CBGA: sub-additive
[3]; [8]
  pIC50: < 4.30
[4]; [9]
  pIC50: < 4.30
[5]; [10]
  pIC50: 4.40
[1]; [11]
  pIC50: < 4.30

## CCCCCc1cc(O)c2c(c1)OC(C)(CCC=C(C)C)C=C2 (stereo not drawn) [CBC, 2-methyl-2-(4-methylpent-3-en-1-yl)-7-pentyl-2H-chromen-5-ol]
SOCE in Jurkat T cells; read-out: IC50 SOCE, purified cannabinoids, Table 5
  pIC50: 4.88
[2]; read-out: IC50 SOCE, purified cannabinoids, THP-1, Table 5
  pIC50: < 4.30
[3]; read-out: IC50 SOCE, purified cannabinoids, RBL-2H3
  pIC50: 4.50
[4]; read-out: IC50 SOCE, purified cannabinoids, U937
  pIC50: 4.39
[5]; read-out: IC50 SOCE, purified cannabinoids, Luva
  pIC50: 4.57
[1]; read-out: IC50 SOCE, purified cannabinoids, HEK-293
  pIC50: 4.73

## CCCc1cc(O)c(C/C=C(\C)CCC=C(C)C)c(O)c1C(=O)O [CBGVA, (E)-3-(3,7-dimethylocta-2,6-dien-1-yl)-2,4-dihydroxy-6-propylbenzoic acid]
SOCE in Jurkat T cells; [6]
  pIC50: 5.94
SOCE in Jurkat T cells
  combinatory effect on SOCE inhibition when paired with CBGA (isobolographic analysis): Simple additive
[2]; [7]
  pIC50: 5.59
[2]; THP-1
  combinatory effect on SOCE inhibition when paired with CBGA (isobolographic analysis): sub-additive
[3]; [8]
  pIC50: 5.38
[4]; [9]
  pIC50: 5.54
[5]; [10]
  pIC50: 5.60
[1]; [11]
  pIC50: 5.68

## CCCc1cc(O)c2c(c1)OC(C)(C)[C@@H]1CCC(C)=C[C@@H]21 [THCV, trimethyl-3-propyl-6a,7,8,10a-tetrahydro-6H-benzo[c]chromen-1-ol]
SOCE in Jurkat T cells; [6]
  pIC50: 4.97
[2]; [7]
  pIC50: < 4.30
[3]; [8]
  pIC50: < 4.30
[4]; [9]
  pIC50: < 4.30
[5]; [10]
  pIC50: < 4.30
[1]; [11]
  pIC50: < 4.30

## C=C(C)[C@@H]1CCC(C)=C[C@H]1c1c(O)cc(CCC)cc1O [CBDV, (1′R,2′R)-5′-methyl-2′-(prop-1-en-2-yl)-4-propyl-1′,2′,3′,4′-tetrahydro-[1,1′-biphenyl]-2,6-diol]
SOCE in Jurkat T cells; [6]
  pIC50: 5.22
SOCE in Jurkat T cells
  combinatory effect on SOCE inhibition when paired with CBGA (isobolographic analysis): sub-additive
[2]; [7]
  pIC50: < 4.30
[3]; [8]
  pIC50: 4.52
[4]; [9]
  pIC50: 4.76
[5]; [10]
  pIC50: 6.77
[1]
  inhibitory effect in immune cells compared with non-immune HEK293 cells: selective
[1]; [11]
  pIC50: 4.75

## CCCCCc1cc2c(c(O)c1C(=O)O)-c1cc(C)ccc1C(C)(C)O2 [CBNA, 1-hydroxy-6,6,9-trimethyl-3-pentyl-6H-benzo[c]chromene-2-carboxylic acid]
SOCE in Jurkat T cells; [6]
  pIC50: 6.00
SOCE in Jurkat T cells
  combinatory effect on SOCE inhibition when paired with CBGA (isobolographic analysis): Simple additive
[2]; [7]
  pIC50: 5.14
[2]; THP-1
  combinatory effect on SOCE inhibition when paired with CBGA (isobolographic analysis): sub-additive
[3]; [8]
  pIC50: 4.65
[4]; [9]
  pIC50: 4.72
[5]; [10]
  pIC50: < 4.30
[1]; [11]
  pIC50: 4.53

## CCCCCc1cc(O)c2c(c1)OC(C)(C)[C@@H]1CCC(C)=C[C@@H]21 [Δ9-THC, (6aR,10aR)-6,6,9-trimethyl-3-pentyl-6a,7,8,10a-tetrahydro-6H-benzo[c]chromen-1-ol]
SOCE in Jurkat T cells
  effect on SOCE Ca^2+ signals, pure compounds: low to no effects
SOCE in Jurkat T cells; [6]
  pIC50: < 4.30
[2]; [7]
  pIC50: < 4.30
[3]; [8]
  pIC50: < 4.30
[4]; [9]
  pIC50: < 4.30
[5]; [10]
  pIC50: 6.01
[1]; [11]
  pIC50: < 4.30

## CCCCCc1cc(O)c2c(c1)OC(C)(C)c1ccc(C)cc1-2 [CBN, 6,6,9-trimethyl-3-pentyl-6H-benzo[c]chromen-1-ol]
SOCE in Jurkat T cells; [6]
  pIC50: 5.04
SOCE in Jurkat T cells
  combinatory effect on SOCE inhibition when paired with CBGA (isobolographic analysis): Simple additive
[2]; [7]
  pIC50: < 4.30
[2]; THP-1
  combinatory effect when paired with 2.2 μM CBGA: simple additive agonists
[3]; [8]
  pIC50: 4.37
[4]; [9]
  pIC50: 4.34
[5]; [10]
  pIC50: 4.48
[1]; [11]
  pIC50: 4.57

## CCCCCc1cc2c(c(O)c1C(=O)O)[C@@H]1C=C(C)CC[C@H]1C(C)(C)O2 [THCA, (6aR, 10aR)-1-hydroxy-6,6,9-trimethyl-3-pentyl-6a,7,8,10a-tetrahydro-6H-benzo[c]chromene-2-carboxylic acid]
SOCE in Jurkat T cells
  effect on SOCE Ca^2+ signals, pure compounds: fully block the Ca^2+ signals
  combinatory effect on SOCE inhibition when paired with CBGA (isobolographic analysis): Simple additive
SOCE in Jurkat T cells; [6]
  pIC50: 5.65
[2]; [7]
  pIC50: 4.98
[2]; THP-1
  combinatory effect on SOCE inhibition when paired with CBGA (isobolographic analysis): sub-additive
[3]; [8]
  pIC50: 4.76
[4]; [9]
  pIC50: 5.09
[5]; [10]
  pIC50: 6.24
[1]; [11]
  pIC50: 4.68
